Read-outs that look alike come from different tables or passages of the source.
How the values were obtained:
CRBN-DDB1 = CRBN-DDB1 (Homo sapiens (Human), UniProt Q96SW2); assay: Compound binding to CRBN by HTRF assay
Experimental: Compound activity was monitored in a Homogenous Time-Resolved Fluorescence (HTRF) assay using 1-[5-({2-[2-(2-{[2-(2,6-dioxopiperidin-3-yl)-1,3-dioxo-2,3-dihydro-1H-isoindol-4-yl]oxy}acetamido)ethoxy]ethyl}carbamoyl)pentyl]-3,3-dimethyl-2-[(1E,3E)-5-[(2E)-1,3,3-trimethyl-5-sulfo-2,3-dihydro-1H-indol-2-ylidene]penta-1,3-dien-1-yl]-3H-indol-1-ium-5-sulfonate as a fluorescent probe. Biochemical assays were conducted in Greiner white 384 well HiBase plates (Cat. No 784075-25) in 20 μL total volume. A one pot detection solution of CRBN-DDB1 (2.5 nM), Anti-His Terbium Cryptate Gold (1×, PerkinElmer Cat. #: 61HI2TLB), and Cy5-Thalidomide (100 nM, Tenova Cat.: T52461) was prepared in 20 mM HEPES, 20 mM NaCl, 0.2 mM TCEP, 0.2 mM EDTA, and 0.005% Tween20 was dispensed to each assay plate. Compounds were stored in dry, ambient temperatures at 10 mM. An 11-point, 1:3 dilution series was prepared from 10 mM stock concentrations in Echo-compatible LDV plates. 10 nL of each compound dilution series was dispensed into assays wells using an Echo 650 (Labcyte Inc. USA). 20 nL of 10 mM Lenalidomide was transferred into the active-control wells for the assay and 20 nL of DMSO was transferred into the neutral-control wells. The assay was then allowed to incubate for 30 min at ambient temperature after transferring compound. Plate measurements were taken on a Pherastar FSX (BMG Labtech, Germany) using the HTRF Red filter (Ex. 337 nm, em1: 620 nm, em2: 665 nm) (Flashes: 50, Integration time: 60-400 us, Z-height: 10 mm, Ratio-multiplier: 10,000). The HTRF signal was then subsequently normalized to the neutral and active controls. Analysis and EC50 values were derived using KNIME analytics (KNIME Zurich) transformation and fitting within Collaborative Drug Discovery (Collaborative Drug Discovery USA). Ki was derived from the geometric mean of the EC50 values using the Cheng-Prustoff transformation.

NEK7 = NEK7 (Homo sapiens (Human), UniProt Q8TDX7+Q96SW2); assay: NEK7 NanoBiT degradation assay in Cal51 NEK7 NanoBiT cell line; type: cell-based; conditions: Cal51 NEK7 NanoBiT cells, 24 hours; for Dmax: CAL-51
Sequence of NEK7 (Q8TDX7 whole entry): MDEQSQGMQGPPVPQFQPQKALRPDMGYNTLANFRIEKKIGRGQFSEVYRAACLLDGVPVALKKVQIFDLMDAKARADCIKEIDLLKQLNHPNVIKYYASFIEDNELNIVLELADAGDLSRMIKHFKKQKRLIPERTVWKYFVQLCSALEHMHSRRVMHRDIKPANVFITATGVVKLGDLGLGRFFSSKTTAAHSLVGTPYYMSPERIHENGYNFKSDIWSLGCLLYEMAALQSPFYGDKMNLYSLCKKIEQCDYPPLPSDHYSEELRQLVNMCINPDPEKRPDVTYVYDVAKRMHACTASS
Sequence of NEK7 (Q96SW2 whole entry): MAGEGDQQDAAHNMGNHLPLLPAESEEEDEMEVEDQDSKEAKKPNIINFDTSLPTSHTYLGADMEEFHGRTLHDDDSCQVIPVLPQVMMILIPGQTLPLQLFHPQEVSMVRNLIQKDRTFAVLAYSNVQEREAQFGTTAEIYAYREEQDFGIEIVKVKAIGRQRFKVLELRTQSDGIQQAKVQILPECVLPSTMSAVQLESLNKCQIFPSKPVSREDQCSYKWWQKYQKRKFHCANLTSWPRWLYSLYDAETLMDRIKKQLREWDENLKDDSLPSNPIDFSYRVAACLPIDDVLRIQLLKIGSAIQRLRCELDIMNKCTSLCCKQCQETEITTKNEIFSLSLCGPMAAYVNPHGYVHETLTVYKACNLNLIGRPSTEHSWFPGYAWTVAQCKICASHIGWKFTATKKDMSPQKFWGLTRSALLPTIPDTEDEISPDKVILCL
Sequence of NEK7 (Q16531 2-1140 partner): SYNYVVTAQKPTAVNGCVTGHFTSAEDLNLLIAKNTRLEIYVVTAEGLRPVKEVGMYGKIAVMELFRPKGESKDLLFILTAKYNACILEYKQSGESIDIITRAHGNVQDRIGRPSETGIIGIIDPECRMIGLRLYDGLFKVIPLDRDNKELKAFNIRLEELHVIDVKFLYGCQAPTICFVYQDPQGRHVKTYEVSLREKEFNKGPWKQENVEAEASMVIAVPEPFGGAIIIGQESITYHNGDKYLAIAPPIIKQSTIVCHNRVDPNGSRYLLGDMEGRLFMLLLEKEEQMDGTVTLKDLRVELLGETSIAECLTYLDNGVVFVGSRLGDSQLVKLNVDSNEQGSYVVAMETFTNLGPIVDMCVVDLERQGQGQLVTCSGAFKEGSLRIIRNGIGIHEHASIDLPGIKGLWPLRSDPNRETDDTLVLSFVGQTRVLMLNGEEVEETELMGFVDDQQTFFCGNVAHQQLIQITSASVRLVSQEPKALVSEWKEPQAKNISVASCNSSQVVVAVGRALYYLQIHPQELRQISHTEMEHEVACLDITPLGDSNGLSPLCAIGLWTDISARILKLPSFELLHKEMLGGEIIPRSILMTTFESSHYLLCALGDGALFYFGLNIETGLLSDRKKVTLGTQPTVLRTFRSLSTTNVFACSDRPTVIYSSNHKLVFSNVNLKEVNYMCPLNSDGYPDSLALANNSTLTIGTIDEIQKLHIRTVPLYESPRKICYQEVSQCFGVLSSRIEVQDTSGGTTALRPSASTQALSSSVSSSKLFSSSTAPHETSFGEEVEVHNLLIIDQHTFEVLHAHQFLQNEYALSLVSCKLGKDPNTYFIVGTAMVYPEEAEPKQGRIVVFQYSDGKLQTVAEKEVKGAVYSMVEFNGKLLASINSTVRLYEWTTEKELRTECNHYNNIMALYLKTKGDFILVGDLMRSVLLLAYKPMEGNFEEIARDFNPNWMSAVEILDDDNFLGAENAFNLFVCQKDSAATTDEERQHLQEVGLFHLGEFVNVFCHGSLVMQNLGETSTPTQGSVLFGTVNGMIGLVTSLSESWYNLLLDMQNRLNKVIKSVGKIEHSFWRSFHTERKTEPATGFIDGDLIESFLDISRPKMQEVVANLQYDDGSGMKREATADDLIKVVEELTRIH
Experimental: Cal51 NEK7 NanoBiT cell line was generated via CRISPR Knock-In of the HiBiT tag in NEK7 gene and stable infection with a lentivirus carrying LgBiT protein. The cell line was generated in house. For the experiment, cells were plated in 384-well white flat bottom plates (Corning, 3570BC) at 2500 cells per well using Multiflo (BioTek/Agilent) and in 25 μl volume in DMEM experimental medium: DMEM (DMEM, high glucose, HEPES, no phenol red (ThermoFisher Scientific, 21063029) supplemented with 10% FBS (Corning, 35-075-CV), 1% Penicillin/Streptomycin ((ThermoFisher Scientific, 15140-122), and 1% Endurazine (Nano-Glo Endurazine Live Cell Substrate (Promega, N2571)). Cells were incubated for 16 hours at 37° C., 5% CO2 before compound addition. For dose response determination, 2.5 nL of a compound at different concentrations (stock compound concentration range: 10 mM to 0.5 μM, final concentration range inside cell plate: 1 μM to 0.05 nM) were dispensed into the plate using an Echo® 650 liquid handling device (Backman Coulter/Labcyte). Cells were incubated at 37° C., 5% CO2 for 24 hours and then signal was read on a Pherastar FSX using “LUM plus” optic module with 4095 gain and measurement interval time 0.2 seconds.
Analysis was performed in Genedata Screener (Genedata, Basel, CH). Luminescence response (R) was calculated by the formula: response=100*(S−N)/(P−N) where S is the signal of the well, N and P the mean negative and positive control values respectively of the same plate. The luminescence response was then fitted in Genedata using a 4-parameter antagonist logistic fit (hill slope unconstrained, EC50>0, top/bottom unconstrained).

[1] = NEK7 degradation, read-out: NanoBiT Dmax
[2] = NEK7 degradation, read-out: NanoBiT DC50

Sequence of CRBN-DDB1 (Q96SW2 whole entry): as the sequence (Q96SW2 whole entry) above
Sequence of CRBN-DDB1 (Q16531 whole entry partner): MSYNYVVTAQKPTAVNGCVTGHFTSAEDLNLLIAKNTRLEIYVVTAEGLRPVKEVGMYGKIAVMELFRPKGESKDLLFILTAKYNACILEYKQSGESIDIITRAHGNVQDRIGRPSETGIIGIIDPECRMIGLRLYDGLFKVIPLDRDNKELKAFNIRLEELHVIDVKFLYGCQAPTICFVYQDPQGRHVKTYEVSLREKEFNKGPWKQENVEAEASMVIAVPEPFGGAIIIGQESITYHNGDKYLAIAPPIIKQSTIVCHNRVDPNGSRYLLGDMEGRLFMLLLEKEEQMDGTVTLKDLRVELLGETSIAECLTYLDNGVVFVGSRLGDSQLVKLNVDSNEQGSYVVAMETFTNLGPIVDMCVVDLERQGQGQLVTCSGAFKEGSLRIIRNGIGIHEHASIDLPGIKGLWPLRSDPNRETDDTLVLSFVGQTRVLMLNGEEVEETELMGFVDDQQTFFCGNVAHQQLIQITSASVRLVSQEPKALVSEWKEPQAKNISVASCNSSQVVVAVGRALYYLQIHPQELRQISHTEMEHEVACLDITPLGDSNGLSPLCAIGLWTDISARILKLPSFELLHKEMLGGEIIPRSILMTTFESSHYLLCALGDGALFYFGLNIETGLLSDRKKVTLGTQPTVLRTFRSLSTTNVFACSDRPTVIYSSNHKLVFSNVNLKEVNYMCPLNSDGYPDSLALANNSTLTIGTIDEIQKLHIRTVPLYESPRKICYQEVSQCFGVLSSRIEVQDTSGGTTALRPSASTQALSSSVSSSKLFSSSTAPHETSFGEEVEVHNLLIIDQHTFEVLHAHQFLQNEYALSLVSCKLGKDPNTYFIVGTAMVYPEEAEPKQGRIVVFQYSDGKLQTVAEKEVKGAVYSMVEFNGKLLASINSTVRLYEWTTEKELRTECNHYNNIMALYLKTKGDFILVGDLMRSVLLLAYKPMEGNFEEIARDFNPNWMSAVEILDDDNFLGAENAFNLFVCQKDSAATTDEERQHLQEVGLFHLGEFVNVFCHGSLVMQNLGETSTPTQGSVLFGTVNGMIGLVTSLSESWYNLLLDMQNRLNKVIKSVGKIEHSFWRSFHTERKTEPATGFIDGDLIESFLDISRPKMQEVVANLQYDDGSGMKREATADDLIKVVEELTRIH

Structure (SMILES)	EC50 (CRBN-DDB1) [nM]	EC50 (CRBN-DDB1; HTRF class, Cereblon binding) [nM]	Dmax (NEK7; read-out: NEK7 NanoBiT Dmax) [%]	Dmax (NEK7; [1]) [%]	DC50 (NEK7; read-out: NEK7 NanoBiT DC50) [nM]	DC50 (NEK7; [2]) [nM]
CC(C)(C(=O)NCc1cc(Cl)c([C@@H]2CCC(=O)NC2=O)c(Cl)c1)c1ncc(C#N)cn1 (single isomer, unassigned) [Compound 152]	240	100 to 1000	95	> 75	2	≤ 100
CC(C)(C(=O)NCc1cc(Cl)c([C@H]2CCC(=O)NC2=O)c(Cl)c1)c1ncc(C#N)cn1 (single isomer, unassigned) [Compound 153]	≥ 10000	> 1000	90	> 75	53	≤ 100
Cc1cnc(C(C)(C)C(=O)NCc2cc(Cl)c([C@@H]3CCC(=O)NC3=O)c(Cl)c2)nc1 (single isomer, unassigned) [Compound 154]	180	100 to 1000	89	> 75	4	≤ 100
Cc1cnc(C(C)(C)C(=O)NCc2cc(Cl)c([C@H]3CCC(=O)NC3=O)c(Cl)c2)nc1 (single isomer, unassigned) [Compound 155]	≥ 10000	> 1000	75	50 to 75	186	100 to 1000
CC(C)(C(=O)NCc1cc(Cl)c([C@@H]2CCC(=O)NC2=O)c(Cl)c1)c1ncccn1 (single isomer, unassigned) [Compound 179]	4170	> 1000	59	50 to 75	578	100 to 1000
CC(C)(C(=O)NCc1cc(Cl)c([C@H]2CCC(=O)NC2=O)c(Cl)c1)c1ncccn1 (single isomer, unassigned) [Compound 180]	120	100 to 1000	81	> 75	16	≤ 100
Cc1nnc(C(C)(C)C(=O)NCc2cc(Cl)c([C@@H]3CCC(=O)NC3=O)c(Cl)c2)o1 (single isomer, unassigned) [Compound 224]	90	≤ 100	77	> 75	32	≤ 100
Cc1nnc(C(C)(C)C(=O)NCc2cc(Cl)c([C@H]3CCC(=O)NC3=O)c(Cl)c2)o1 (single isomer, unassigned) [Compound 225]	6560	> 1000	49	≤ 50	1000	> 1000
Cc1cnc(C(C)(C)C(=O)NCc2cc(Cl)c([C@]3(F)CCC(=O)NC3=O)c(Cl)c2)nc1 (single isomer, unassigned) [Compound 243]	≥ 10000	> 1000	9	≤ 50	1000	> 1000
CC(C)(C(=O)NCc1ccc(C2CCC(=O)NC2=O)c(Cl)c1)c1ccc(OC(F)(F)F)cc1 (centres unmarked) [Compound 100]			91	> 75	45	≤ 100
CC(C)(C(=O)NCc1ccc(C2CCC(=O)NC2=O)c(Cl)c1)c1ccc(Cl)cc1 (centres unmarked) [Compound 101]			95	> 75	5	≤ 100
CC1(C(=O)NCc2ccc(C3CCC(=O)NC3=O)c(Cl)c2)CCc2ccccc2C1 (centres unmarked) [Compound 102]			86	> 75	51	≤ 100
CC(C)(C(=O)NCc1ccc(C2CCC(=O)NC2=O)c(Cl)c1)c1cccc(C(F)(F)F)n1 (centres unmarked) [Compound 104]			80	> 75	122	100 to 1000
CC(C)(C(=O)NCc1ccc(C2CCC(=O)NC2=O)c(Cl)c1)c1ccc(Cl)nc1 (centres unmarked) [Compound 105]			84	> 75	58	≤ 100
Cc1noc(C)c1C(C)(C)C(=O)NCc1cc(Cl)c(C2CCC(=O)NC2=O)c(Cl)c1 (centres unmarked) [Compound 112]			40	≤ 50	1000	> 1000
CC(C)(C(=O)NCc1cc(Cl)c(C2CCC(=O)NC2=O)c(Cl)c1)c1cscn1 (centres unmarked) [Compound 113]			61	50 to 75	151	100 to 1000
CC(C)(C(=O)NCc1cc(Cl)c(C2CCC(=O)NC2=O)c(Cl)c1)c1cncs1 (centres unmarked) [Compound 114]			69	50 to 75	52	≤ 100
CC(C)(C(=O)NCc1cc(Cl)c(C2CCC(=O)NC2=O)c(Cl)c1)c1cc[nH]n1 (centres unmarked) [Compound 115]			76	> 75	43	≤ 100
Cc1cc(C(C)(C)C(=O)NCc2cc(Cl)c(C3CCC(=O)NC3=O)c(Cl)c2)nn1C (centres unmarked) [Compound 116]			80	> 75	20	≤ 100
Cn1ccc(C(C)(C)C(=O)NCc2cc(Cl)c(C3CCC(=O)NC3=O)c(Cl)c2)n1 (centres unmarked) [Compound 117]			74	50 to 75	51	≤ 100
CC(C)(C(=O)NCc1cc(Cl)c(C2CCC(=O)NC2=O)c(Cl)c1)c1c[nH]cn1 (centres unmarked) [Compound 118]			48	≤ 50	760	100 to 1000
Cn1cnnc1C(C)(C)C(=O)NCc1cc(Cl)c(C2CCC(=O)NC2=O)c(Cl)c1 (centres unmarked) [Compound 119]			45	≤ 50	1000	> 1000
CC(C)(C(=O)NCc1cc(Cl)c(C2CCC(=O)NC2=O)c(Cl)c1)c1ccc(CC#N)nn1 (centres unmarked) [Compound 214]			49	≤ 50	635	100 to 1000

— patent US20250243180A1, “TARGETED PROTEIN DEGRADATION” (Monte Rosa Therapeutics AG, priority 2023, published 2025)
